According to PubChem BioAssay (NCI):
≈ marks a conversion by molar mass, not a printed value.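 Five compound concentrations were applied to cells in 96-well plates for 48 hours; endpoints were derived by simple linear interpolation of the resulting dose-response curve. GI50 = concentration required for 50% inhibition of growth. At the TGI there is no net growth.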

Experiments:
Assay in all cases: NCI-60 cell line screen, 48 h
[1] = tested on: HOP-92 NSCLC
[2] = tested on: SR leukemia
[3] = tested on: MOLT-4 leukemia
[4] = tested on: M14 melanoma
[5] = tested on: SK-OV-3 ovarian
[6] = tested on: UO-31 renal
[7] = tested on: A498 renal
[8] = tested on: COLO 205 colon
[9] = tested on: BT-549 breast
[10] = tested on: LOX IMVI melanoma
[11] = tested on: SK-MEL-5 melanoma
[12] = tested on: OVCAR-3 ovarian
[13] = tested on: NCI-H460 lung
[14] = tested on: MCF7 breast
[15] = tested on: KM12 colon
[16] = tested on: OVCAR-5 ovarian
[17] = tested on: OVCAR-4 ovarian
[18] = tested on: ACHN renal
[19] = tested on: TK-10 renal
[20] = tested on: SNB-75 CNS
[21] = tested on: IGROV1 ovarian
[22] = tested on: NCI/ADR-RES ovarian
[23] = tested on: SW-620 colon
[24] = tested on: SK-MEL-28 melanoma
[25] = tested on: HS 578T breast
[26] = tested on: K-562 leukemia
[27] = tested on: HCC-2998 colon
[28] = tested on: RXF 393 renal
[29] = tested on: 786-0 renal
[30] = tested on: SF-268 CNS
[31] = tested on: RPMI-8226 leukemia
[32] = tested on: CAKI-1 renal
[33] = tested on: U251 CNS
[34] = tested on: EKVX NSCLC
[35] = tested on: CCRF-CEM leukemia
[36] = tested on: HT29 colon
[37] = tested on: NCI-H23 lung
[38] = tested on: SNB-19 CNS
[39] = tested on: OVCAR-8 ovarian
[40] = tested on: SN12C renal
[41] = tested on: A549 NSCLC
[42] = tested on: SF-539 CNS
[43] = tested on: HCT-15 colon
[44] = tested on: HL-60(TB) leukemia
[45] = tested on: UACC-62 melanoma
[46] = tested on: DU-145 prostate
[47] = tested on: NCI-H522 lung
[48] = tested on: PC-3 prostate
[49] = tested on: MALME-3M melanoma
[50] = tested on: HOP-62 NSCLC
[51] = tested on: HCT-116 colon
[52] = tested on: MDA-MB-231 breast
[53] = tested on: UACC-257 melanoma
[54] = tested on: SF-295 CNS
[55] = tested on: NCI-H226 lung
[56] = tested on: SK-MEL-2 melanoma
[57] = tested on: MDA-MB-435

## N#Cc1cc2c(N)ncnc2nc1N1CCCC1
[1]
  GI50: 57.2 µg/mL
[2]
  GI50: 66.4 µg/mL (≈ 276 µM)
[3]
  GI50: 85.2 µg/mL
[4]
  GI50: 48.4 µg/mL
[5]
  GI50: 54.4 µg/mL
[6]
  GI50: 45.7 µg/mL
[7]
  GI50: 36.9 µg/mL
[8]
  GI50: 83.6 µg/mL
[9]
  GI50: 49.3 µg/mL

## COc1cc(/C=C2\CCc3ccccc3C2=O)ccc1O
[10]
  TGI: 32800 nM
[11]
  TGI: 35300 nM
[12]
  TGI: 36100 nM
[13]
  TGI: 34400 nM
[14]
  TGI: 23200 nM
[15]
  TGI: 30800 nM
[16]
  TGI: 27200 nM
[17]
  TGI: 44800 nM
[18]
  TGI: 58100 nM
[19]
  TGI: 37800 nM
[20]
  TGI: 79100 nM
[1]
  TGI: 45200 nM
[21]
  TGI: > 100000 nM
[22]
  TGI: 78800 nM
[23]
  TGI: 33900 nM
[24]
  TGI: 38800 nM
[25]
  TGI: > 100000 nM
[26]
  TGI: 79700 nM
[27]
  TGI: 33700 nM
[2]
  TGI: 48000 nM
[3]
  TGI: 69100 nM
[28]
  TGI: 25000 nM
[4]
  TGI: 33500 nM
[5]
  TGI: 91500 nM
[29]
  TGI: 27300 nM
[6]
  TGI: 27400 nM
[30]
  TGI: 74100 nM
[31]
  TGI: 50200 nM
[32]
  TGI: > 100000 nM
[33]
  TGI: 31700 nM
[34]
  TGI: 59000 nM
[35]
  TGI: > 100000 nM
[36]
  TGI: 32700 nM
[37]
  TGI: 52300 nM
[38]
  TGI: 30200 nM
[39]
  TGI: 37100 nM
[9]
  TGI: 37700 nM
[40]
  TGI: 49700 nM
[41]
  TGI: 53200 nM
[42]
  TGI: 30400 nM
[43]
  TGI: 75700 nM
[44]
  TGI: 30100 nM

## CC(C)Cc1ccc(C(C)C(=O)NCc2ccc(Cn3c(=O)sn(CCCCl)c3=O)cc2)cc1 (stereo unspecified)
[10]
  GI50: 1180 nM
  TGI: 2520 nM
[11]
  GI50: 1630 nM
  TGI: 2990 nM
[12]
  GI50: 738 nM
  TGI: 2030 nM
[13]
  GI50: 1650 nM
  TGI: 3340 nM
[15]
  GI50: 1760 nM
  TGI: 3450 nM
[16]
  GI50: 1750 nM
  TGI: 3290 nM
[17]
  GI50: 1530 nM
  TGI: 3020 nM
[18]
  GI50: 746 nM
  TGI: 2020 nM
[45]
  GI50: 1420 nM
  TGI: 2760 nM
[46]
  GI50: 1460 nM
  TGI: 2820 nM
[47]
  GI50: 458 nM
  TGI: 2010 nM
[48]
  GI50: 677 nM
  TGI: 2270 nM
[19]
  GI50: 493 nM
  TGI: 1850 nM
[20]
  GI50: 445 nM
  TGI: 2040 nM
[1]
  GI50: 814 nM
  TGI: 2260 nM
[21]
  GI50: 744 nM
  TGI: 2210 nM
[22]
  GI50: 2110 nM
  TGI: 8250 nM
[23]
  GI50: 497 nM
  TGI: 1900 nM
[24]
  GI50: 1650 nM
  TGI: 3020 nM
[25]
  GI50: 1820 nM
  TGI: 4900 nM
[26]
  GI50: 412 nM
  TGI: > 100000 nM
[27]
  GI50: 1850 nM
  TGI: 3370 nM
[49]
  GI50: 1560 nM
  TGI: 2970 nM
[3]
  GI50: 962 nM
  TGI: > 100000 nM
[28]
  GI50: 1170 nM
  TGI: 2410 nM
[50]
  GI50: 1280 nM
  TGI: 2730 nM
[51]
  GI50: 235 nM
  TGI: 783 nM
[4]
  GI50: 621 nM
  TGI: 2200 nM
[5]
  GI50: 6130 nM
  TGI: 20000 nM
[29]
  GI50: 551 nM
  TGI: 1980 nM
[52]
  GI50: 1370 nM
  TGI: 2720 nM
[6]
  GI50: 672 nM
  TGI: 2080 nM
[30]
  GI50: 1600 nM
  TGI: 3020 nM
[53]
  GI50: 1560 nM
  TGI: 2980 nM
[54]
  GI50: 4900 nM
  TGI: 17500 nM
[31]
  GI50: 375 nM
  TGI: 6180 nM
[32]
  GI50: 619 nM
  TGI: 2080 nM
[33]
  GI50: 1630 nM
  TGI: 3010 nM
[34]
  GI50: 1470 nM
  TGI: 2780 nM
[55]
  GI50: 1430 nM
  TGI: 3130 nM
[35]
  GI50: 361 nM
  TGI: > 100000 nM
[36]
  GI50: 1600 nM
  TGI: 2940 nM
[37]
  GI50: 1590 nM
  TGI: 3260 nM
[56]
  GI50: 1430 nM
  TGI: 3000 nM
[38]
  GI50: 1710 nM
  TGI: 3300 nM
[7]
  GI50: 1260 nM
  TGI: 2870 nM
[57]
  GI50: 1140 nM
  TGI: 2440 nM
[8]
  GI50: 1120 nM
  TGI: 2760 nM
[39]
  GI50: 1210 nM
  TGI: 2870 nM
[9]
  GI50: 1090 nM
  TGI: 2700 nM
[40]
  GI50: 1340 nM
  TGI: 2650 nM
[41]
  GI50: 1790 nM
  TGI: 3720 nM
[42]
  GI50: 1480 nM
  TGI: 2810 nM
[43]
  GI50: 511 nM
  TGI: 2050 nM
[44]
  GI50: 3820 nM
  TGI: > 100000 nM
